# Test results published in ChEMBL document CHEMBL5385860, “Antiproliferative, antiangiogenic and apoptotic effect of new hybrids of quinazoline-4(3H)-ones and sulfachloropyridazine” (Eur J Med Chem, 2023).
# Assays:
# UO-31 [1] = assay: Cytotoxicity against human UO-31 cells assessed as growth inhibition at 10 uM relative to control; assay type: functional; settings: read-out: GI
# A498 = assay: Cytotoxicity against human A498 cells assessed as growth inhibition at 10 uM relative to control; assay type: functional; settings: read-out: GI
# CAKI-1 = assay: Cytotoxicity against human CAKI-1 cells assessed as growth inhibition at 10 uM relative to control; assay type: functional; settings: read-out: GI
# SW-620 = assay: Cytotoxicity against human SW-620 cells assessed as growth inhibition at 10 uM relative to control; assay type: functional; settings: read-out: GI
# NCI-H522 = assay: Cytotoxicity against human NCI-H522 cells assessed as growth inhibition at 10 uM relative to control; assay type: functional; settings: read-out: GI
# HOP-92 = assay: Cytotoxicity against human HOP-92 cells assessed as growth inhibition at 10 uM relative to control; assay type: functional; settings: read-out: GI
# SK-OV-3 = assay: Cytotoxicity against human SK-OV-3 cells assessed as growth inhibition at 10 uM relative to control; assay type: functional; settings: read-out: GI
# SNB-75 [2] = assay: Cytotoxicity against human SNB-75 cells assessed as growth inhibition at 10 uM relative to control; assay type: functional; settings: read-out: GI
# HOP-62 = assay: Cytotoxicity against human HOP-62 cells assessed as growth inhibition at 10 uM relative to control; assay type: functional; settings: read-out: GI
# SF-539 = assay: Cytotoxicity against human SF-539 cells assessed as growth inhibition at 10 uM relative to control; assay type: functional; settings: read-out: GI
# M14 [3] = assay: Cytotoxicity against human M14 cells assessed as growth inhibition at 10 uM relative to control; assay type: functional; settings: read-out: GI
# T47D = assay: Cytotoxicity against human T47D cells assessed as growth inhibition at 10 uM relative to control; assay type: functional; settings: read-out: GI
# UACC-62 = assay: Cytotoxicity against human UACC-62 cells assessed as growth inhibition at 10 uM relative to control; assay type: functional; settings: read-out: GI
# NCI-H23 = assay: Cytotoxicity against human NCI-H23 cells assessed as growth inhibition at 10 uM relative to control; assay type: functional; settings: read-out: GI
# UACC-257 = assay: Cytotoxicity against human UACC-257 cells assessed as growth inhibition at 10 uM relative to control; assay type: functional; settings: read-out: GI
# CCRF-CEM = assay: Cytotoxicity against human CCRF-CEM cells assessed as growth inhibition at 10 uM relative to control; assay type: functional; settings: read-out: GI
# NCI/ADR-RES = assay: Cytotoxicity against human NCI/ADR-RES cells assessed as growth inhibition at 10 uM relative to control; assay type: functional; settings: read-out: GI
# ACHN = assay: Cytotoxicity against human ACHN cells assessed as growth inhibition at 10 uM relative to control; assay type: functional; settings: read-out: GI
# M14 [4] = assay: cells; settings: Homo sapiens, M14, 24 h
# BT-549 = assay: Cytotoxicity against human BT-549 cells assessed as growth inhibition at 10 uM relative to control; assay type: functional; settings: read-out: GI
# HCT-116 [5] = assay: Cytotoxicity against human HCT-116 cells assessed as growth inhibition at 10 uM relative to control; assay type: functional; settings: read-out: GI
# HCT-116 [6] = assay: cells; settings: Homo sapiens, HCT-116, 24 h
# 786-0 = assay: Cytotoxicity against human 786-0 cells assessed as growth inhibition at 10 uM relative to control; assay type: functional; settings: read-out: GI
# SR = assay: Cytotoxicity against human SR cells assessed as growth inhibition at 10 uM relative to control; assay type: functional; settings: read-out: GI
# MDA-MB-231 = assay: Cytotoxicity against human MDA-MB-231 cells assessed as growth inhibition at 10 uM relative to control; assay type: functional; settings: read-out: GI
# EKVX = assay: Cytotoxicity against human EKVX cells assessed as growth inhibition at 10 uM relative to control; assay type: functional; settings: read-out: GI
# U-251 = assay: Cytotoxicity against human U-251 cells assessed as growth inhibition at 10 uM relative to control; assay type: functional; settings: read-out: GI
# UO-31 [7] = assay: cells; settings: Homo sapiens, UO-31, 24 h
# NCI-H226 = assay: Cytotoxicity against human NCI-H226 cells assessed as growth inhibition at 10 uM relative to control; assay type: functional; settings: read-out: GI
# IGROV-1 = assay: Cytotoxicity against human IGROV-1 cells assessed as growth inhibition at 10 uM relative to control; assay type: functional; settings: read-out: GI
# NCI-H322M = assay: Cytotoxicity against human NCI-H322M cells assessed as growth inhibition at 10 uM relative to control; assay type: functional; settings: read-out: GI
# SNB-75 [8] = assay: cells; settings: Homo sapiens, SNB-75, 24 h
compound,measurement,setting,value
CCCCNC(=O)CSc1nc2ccccc2c(=O)n1-c1ccc(S(=O)(=O)Nc2ccc(Cl)nn2)cc1,inhibition of growth at 10 µM,UO-31 [1],12%
same,inhibition of growth at 10 µM,A498,25%
O=C(CSc1nc2ccccc2c(=O)n1-c1ccc(Cl)c(Cl)c1)Nc1ccc(S(=O)(=O)Nc2ccc(Cl)nn2)cc1,inhibition of growth at 10 µM,CAKI-1,18%
same,inhibition of growth at 10 µM,SW-620,10%
same,inhibition of growth at 10 µM,NCI-H522,10%
same,inhibition of growth at 10 µM,HOP-92,28%
same,inhibition of growth at 10 µM,SK-OV-3,11%
same,inhibition of growth at 10 µM,SNB-75 [2],31%
same,inhibition of growth at 10 µM,UO-31 [1],20%
same,inhibition of growth at 10 µM,HOP-62,12%
same,inhibition of growth at 10 µM,SF-539,10%
same,inhibition of growth at 10 µM,M14 [3],14%
same,inhibition of growth at 10 µM,T47D,14%
same,inhibition of growth at 10 µM,UACC-62,15%
NS(=O)(=O)c1ccc(-n2c(SCC(=O)Nc3ccc(S(=O)(=O)Nc4ccc(Cl)nn4)cc3)nc3ccccc3c2=O)cc1,inhibition of growth at 10 µM,NCI-H23,14%
same,inhibition of growth at 10 µM,UACC-257,10%
same,inhibition of growth at 10 µM,CCRF-CEM,10%
same,inhibition of growth at 10 µM,HOP-92,24%
same,inhibition of growth at 10 µM,UO-31 [1],17%
same,inhibition of growth at 10 µM,SF-539,11%
same,inhibition of growth at 10 µM,NCI/ADR-RES,11%
same,inhibition of growth at 10 µM,ACHN,10%
Cc1ccc2[nH]c(=S)n(-c3ccc(S(=O)(=O)Nc4ccc(Cl)nn4)cc3)c(=O)c2c1,IC50,M14 [4],12.8 µM
same,inhibition of growth at 10 µM,CAKI-1,10%
same,inhibition of growth at 10 µM,BT-549,17%
same,inhibition of growth at 10 µM,HCT-116 [5],60%
same,inhibition of growth at 10 µM,UO-31 [1],15%
same,inhibition of growth at 10 µM,M14 [3],100%
same,IC50,HCT-116 [6],28 µM
same,inhibition of growth at 10 µM,786-0,39%
CCn1c(SCC(=O)Nc2ccc(S(=O)(=O)Nc3ccc(Cl)nn3)cc2)nc2ccccc2c1=O,inhibition of growth at 10 µM,SR,12%
same,inhibition of growth at 10 µM,UO-31 [1],12%
same,inhibition of growth at 10 µM,A498,10%
O=c1c2cccc(Br)c2[nH]c(=S)n1-c1ccc(S(=O)(=O)Nc2ccc(Cl)nn2)cc1,inhibition of growth at 10 µM,CAKI-1,13%
same,inhibition of growth at 10 µM,NCI-H522,12%
same,inhibition of growth at 10 µM,SNB-75 [2],11%
same,inhibition of growth at 10 µM,UO-31 [1],20%
O=c1c2ccccc2[nH]c(=S)n1-c1ccc(S(=O)(=O)Nc2ccc(Cl)nn2)cc1,inhibition of growth at 10 µM,CAKI-1,10%
same,inhibition of growth at 10 µM,NCI-H522,11%
same,inhibition of growth at 10 µM,UO-31 [1],17%
CCCCn1c(SCC(=O)Nc2ccc(S(=O)(=O)Nc3ccc(Cl)nn3)cc2)nc2ccccc2c1=O,inhibition of growth at 10 µM,CAKI-1,18%
same,inhibition of growth at 10 µM,NCI-H522,13%
same,inhibition of growth at 10 µM,BT-549,14%
same,inhibition of growth at 10 µM,MDA-MB-231,10%
same,inhibition of growth at 10 µM,HOP-92,32%
same,inhibition of growth at 10 µM,SK-OV-3,16%
same,inhibition of growth at 10 µM,SNB-75 [2],23%
same,inhibition of growth at 10 µM,EKVX,11%
same,inhibition of growth at 10 µM,UO-31 [1],29%
same,inhibition of growth at 10 µM,HOP-62,14%
same,inhibition of growth at 10 µM,U-251,10%
same,IC50,UO-31 [7],14.7 µM
same,inhibition of growth at 10 µM,NCI-H226,10%
same,inhibition of growth at 10 µM,IGROV-1,15%
same,inhibition of growth at 10 µM,UACC-62,14%
same,inhibition of growth at 10 µM,NCI-H322M,12%
COc1cc2[nH]c(=S)n(-c3ccc(S(=O)(=O)Nc4ccc(Cl)nn4)cc3)c(=O)c2cc1OC,inhibition of growth at 10 µM,CAKI-1,10%
same,inhibition of growth at 10 µM,HCT-116 [5],11%
same,inhibition of growth at 10 µM,SNB-75 [2],10%
same,inhibition of growth at 10 µM,UO-31 [1],16%
O=C(CSc1nc2ccccc2c(=O)n1-c1ccccc1)Nc1ccc(S(=O)(=O)Nc2ccc(Cl)nn2)cc1,inhibition of growth at 10 µM,UACC-257,12%
same,inhibition of growth at 10 µM,HOP-92,11%
same,inhibition of growth at 10 µM,SNB-75 [2],27%
same,inhibition of growth at 10 µM,UO-31 [1],21%
same,IC50,SNB-75 [8],47.5 µM
same,inhibition of growth at 10 µM,NCI-H226,10%
